From patent US9255132B2, “Angiopoietin derived peptides” (Compugen Ltd., priority 2008, dated 2016)
Residues, ends and D or L forms follow the SMILES beside them.

What was measured:
[1] = tested on: oxygen-induced retinopathy (OIR); test: Rodent model of oxygen-induced retinopathy (OIR); format: in vivo, Sprague Dawley rats; details: for inhibition of pre-retinal neovascular growth (pathological angiogenesis): relative to PBS-injected eyes, P20
Description: In order to assess the in viva efficacy of CGEN-A 11 [SEQ ID NO: 10] in a disease model of angiogenesis, a rodent model of oxygen-induced retinopathy (OIR) was used. Sprague Dawley rats were raised from birth through day PI4 in a variable oxygen atmosphere consisting of 24-hour alternating cycles of 50% and 10% oxygen. Rats were predisposed to pathological retinal angiogenesis as a result of oxygen treatment. Upon removal from the oxygen exposure chamber on day P14, rats received intravitreal injections of CGEN-A11 [SEQ ID NO: 10] in one of two doses: 15 μg/ml (low) or 75 μg/ml (high), 100 μg/ml recombinant rat Tie-2/Fc (R&D Systems, 3874-T2) or 100 μg/ml anti-VEGFR2 (Sigma, V1014) as positive controls, a combination of CGEN-A11 [SEQ ID NO: 10] at 30 μg/ml and anti-VEGFR2 (100 μg/ml), or vehicle (PBS) at a volume of 5 μl. An additional similar intravitreal administration took place 3 days later, on day P17. All pups were sacrificed on day P20. Both normal, intra-retinal vascular growth and abnormal, pre-retinal neovascular growth were assessed at six days post-exposure (P20) in ADPase-stained retinal flat-mounts, using widely published methods (e.g. Penn J S et al., 1991, Invest Ophthalmol Vis Sci. 32(4):1147; MicLeod D S et al., 1987, Microvasc Res. 33:257-269). All assessments were performed by a single, highly trained observer, who was blinded to treatment group. Areas of normal and abnormal vascular growth were measured via computer-assisted image analysis using high-resolution digital images of the stained retinal flat-mounts. The data were subjected to analysis of variance to determine statistical significance and a Dunnett's post hoc test to identify how the various treatment groups compared.
Data are depicted using percent total retinal area vascularized. Sample sizes (10, 11 or 12) are indicated on each bar. […] These differences yielded statistical significance, both at p<0.0001. Statistical significance was calculated using area (mm^2) measurements.
Data are depicted as area vascularized (mm^2). Sample sizes (10, 11 or 12) are indicated on each bar.

[2] = target: T1, recombinant human Tie-2/Fc chimera (Homo sapiens, UniProt Q02763); test: BIACORE (SPR) direct binding of peptides to immobilized Tie2; details: 10-50 μM peptide
T1 construct: purchased R&D Systems 313-TI
T1 sequence (Q02763 with tags, fused parts or gaps limits assumed): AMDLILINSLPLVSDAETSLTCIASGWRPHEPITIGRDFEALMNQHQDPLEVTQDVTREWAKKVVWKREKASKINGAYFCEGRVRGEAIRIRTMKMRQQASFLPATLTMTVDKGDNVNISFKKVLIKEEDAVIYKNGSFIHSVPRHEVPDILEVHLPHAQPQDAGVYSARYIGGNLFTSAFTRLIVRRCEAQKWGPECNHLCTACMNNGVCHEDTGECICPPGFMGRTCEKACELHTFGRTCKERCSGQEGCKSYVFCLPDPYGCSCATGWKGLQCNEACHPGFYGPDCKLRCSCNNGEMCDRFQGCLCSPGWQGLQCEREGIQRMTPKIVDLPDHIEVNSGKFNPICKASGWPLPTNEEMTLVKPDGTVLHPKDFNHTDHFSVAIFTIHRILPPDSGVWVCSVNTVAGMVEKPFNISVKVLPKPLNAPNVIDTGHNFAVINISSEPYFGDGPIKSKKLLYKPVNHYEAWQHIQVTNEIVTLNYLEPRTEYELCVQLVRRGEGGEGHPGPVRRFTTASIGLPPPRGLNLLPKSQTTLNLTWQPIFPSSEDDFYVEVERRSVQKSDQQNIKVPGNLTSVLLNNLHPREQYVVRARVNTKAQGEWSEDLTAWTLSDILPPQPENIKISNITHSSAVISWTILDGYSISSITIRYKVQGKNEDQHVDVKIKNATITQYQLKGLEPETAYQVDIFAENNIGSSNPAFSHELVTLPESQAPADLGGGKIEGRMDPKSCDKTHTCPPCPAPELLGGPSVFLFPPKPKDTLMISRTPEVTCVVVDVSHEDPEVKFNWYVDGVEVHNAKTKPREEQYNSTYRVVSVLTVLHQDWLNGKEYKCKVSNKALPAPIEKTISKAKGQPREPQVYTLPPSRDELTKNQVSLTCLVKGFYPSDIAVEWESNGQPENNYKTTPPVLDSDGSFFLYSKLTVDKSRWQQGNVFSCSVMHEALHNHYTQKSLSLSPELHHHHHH
Description: The capability of CGEN-G6 [SEQ ID NO: 6], CGEN-F9 [SEQ ID NO: 7], CGEN-C6 [SEQ ID NO: 9], CGEN-A11 [SEQ ID NO: 10], and CGEN-G2 [SEQ ID NO: 11] to specifically bind to recombinant Tie2 and interfere with the binding of Ang1, Ang2, or Ang4 to Tie2 was investigated using the BIACORE technology, measuring protein-protein interaction and binding affinity (Wendler et al 2005, Anal Bioanal Chem, 381: 1056-1064). The technology is based on surface plasmon resonance (SPR), an optical phenomenon that enables detection of unlabeled interactants in real time. […]
Peptide-protein interaction was analyzed using surface plasmon resonance. […] Solutions containing 10-50 μM of CGEN-G6 [SEQ ID NO: 6], CGEN-F9 [SEQ ID NO: 7], CGEN-C6 [SEQ ID NO: 9], CGEN-A11 [SEQ ID NO: 10], and CGEN-G2 [SEQ ID NO: 11] were injected into the sample chamber of the BIACORE device at a rate of 20 μl/min and the interaction was monitored using surface plasmon resonance. In addition, solutions containing 100-500 nM of Ang1, Ang2, and Ang4 proteins were injected alone or in combination with 10-50 μM of CGEN-G6 [SEQ ID NO: 6], CGEN-F9 [SEQ ID NO: 7], CGEN-C6 [SEQ ID NO: 9], CGEN-A11 [SEQ ID NO: 10], and CGEN-G2 [SEQ ID NO: 11] peptides at a constant ratio of 1:100 (Ang ligand to peptide) into the sample chamber of the BIACORE device at a rate of 20 μl/min and the interaction was monitored using surface plasmon resonance. […]

Row | Compound | inhibition of pre-retinal neovascular growth (pathological angiogenesis) ([1]; intravitreal 15 μg/ml) [%] | intra-retinal normal vascular growth compared to PBS control ([1]; intravitreal 75 μg/ml, 5 μl, P14 and P17, assessed P20, p<0.0001) | inhibition of pre-retinal neovascular growth (pathological angiogenesis) ([1]; intravitreal 75 μg/ml, p=0.0126) [%] | binding of peptide alone to immobilized Tie2 [2]
1 | CC(=O)N[C@@H](CCC(=O)O)C(=O)N[C@H](C(=O)N[C@@H](Cc1ccccc1)C(=O)N[C@@H](CC(C)C)C(=O)N[C@@H](CO)C(=O)N[C@H](C(=O)N[C@@H](CC(N)=O)C(=O)N[C@@H](CCCCN)C(=O)N[C@@H](CC(C)C)C(=O)N[C@@H](CCC(=O)O)C(=O)N[C@@H](CC(N)=O)C(=O)N[C@@H](CCC(N)=O)C(N)=O)[C@@H](C)O)[C@@H](C)O [CGEN-A11, ETFLSTNKLENQ] (Ac-ETFLSTNKLENQ-NH2) | 38.9 | statistically significant increase | 76.4 | 
2 | CC[C@H](C)[C@H](NC(=O)[C@H](C)NC(=O)[C@H](CCCNC(=N)N)NC(=O)[C@H](CCC(=O)O)NC(=O)[C@H](CC(C)C)NC(=O)[C@H](CCCCN)NC(=O)[C@H](CCCCN)NC(=O)[C@H](CC(C)C)NC(=O)[C@H](Cc1c[nH]c2ccccc12)NC(=O)[C@H](CCC(N)=O)NC(=O)[C@@H](NC(=O)[C@H](CC(N)=O)NC(=O)[C@H](CC(N)=O)NC(=O)[C@H](CCC(N)=O)NC(=O)[C@H](CC(C)C)NC(=O)[C@H](C)NC(=O)[C@H](CCC(N)=O)NC(=O)[C@H](CCC(=O)O)NC(=O)[C@H](CC(C)C)NC(=O)[C@H](CCC(N)=O)NC(=O)[C@H](CCCCN)NC(=O)[C@@H](NC(=O)[C@H](CCC(N)=O)NC(=O)[C@H](CCC(N)=O)NC(=O)[C@@H](NC(C)=O)[C@@H](C)O)C(C)C)[C@@H](C)O)C(=O)N[C@@H](CCCCN)C(=O)N[C@H](C(=O)N[C@H](C(=O)N[C@@H](CC(C)C)C(N)=O)[C@@H](C)CC)[C@@H](C)O [CGEN-G2] (Ac-TQQVKQLEQALQNNTQWLKKLERAIKTIL-NH2) |  |  |  | some non specific binding
